In patent publication US20040096899A1, “Immunoassay method for membrane-bound matrix metalloprotease” (priority 2000, published 2004):
Blank lines part the entries; values can stand above or below the substance they belong to.

Key:
[1] = molecular target: T1, MT1-MMP sandwich EIA (solid-phase antibody 222-2D12, labeled antibody 222-1D8) (Homo sapiens, UniProt P50281); experiment: Specificity test: cross reactivity on MT1-MMP sandwich EIA; assay type: binding; conditions: concentration 1 μg/mL; blank 0.027
T1 construct: 488 amino acid residues of Δ MT1-MMP (G^48 to G^53) which lacks the signal peptide and part of the propeptide region; made in house; host or cells: E. coli
Procedure: Monoclonal antibodies (e.g., 333-2D12 (IgG)) were dissolved in 0.1 M phosphate buffer, pH 7.0 to a concentration of 25 μg/mL. The monoclonal antibody solution was added to each well of a 96-well microwell (Maxisorp; Nunc-Immuno Module) at 100 μL per well and allowed to stand at 4° C. for 24 hrs. […] The solid-phase antibodies were preserved at 4° C.
Standard antigens or samples to be assayed were dispensed into a 96-well vinyl plate at 25 μL each. To each well was added a dilution buffer in aliquots of 100 μL, followed by mixing. An aliquot (100 μL) of the resultant mixture was taken out, dispensed into an antibody-solid phased plate from which a blocking solution was removed by washing. The plate was then allowed to stand at 4° C. for 16 hours.
[…] antibody 222-1D8 (Fab′-HRP) was diluted with a blocking solution to a concentration of 0.4 μg/mL. The reaction solution was removed from the antibody-solid phased plate where the primary reaction was completed. The plate was washed with a washing liquid three times and an aliquot (100 μL) of the labeled antibody solution was added to each well. The plate was allowed to stand at room temperature for 1 hour.
After completion of the reaction, the labeled antibody solution was removed. The plate was then washed with a washing liquid three times, and a TMB solution (CALBIOCHEM) was added to each well at 100 μL. The mixture was allowed to react at room temperature for 20 minute. The reaction was stopped with the addition of 2 N sulfuric acid at 100 μL per well. The reaction mixture was measured for A450 with a microplate reader (MPR-A4; Tosoh).
Each of MMP-1, -2, -3, -4, -7, -8, -9, -13, -19 and -20 was prepared to give a concentration of 1 μg/mL, and subjected to MT1-MMP sandwich EIA. A450 was measured. When MT1-MMP was subjected to sandwich EIA at 0.16 μg/mL, the absorbance was 2.206. However, when the above MMPs were subjected, their absorbances were only an extent of 0.024 to 0.071. Accordingly, it has been verified that MT1-MMP sandwich EIA is specifically reactive with MT1-MMP.

HT-1080 (fibrosarcoma) = experiment: MT1-MMP sandwich EIA of cultured cell line with Con A; assay type: cell-based, Human; conditions: HT-1080, Con A-containing serum-free medium 48 hours
Procedure: (§1) Searches for Human MT1-MMP-producing culture cell lines were carried out by means of MT1-MMP sandwich EIA. With regard to the cell lines, there were used Burkitt's lymphoma (Daudi, Namalwa, Raji), acute lymphoblastic leukemia (T-cells) (MOLT-4), chronic myelogenous leukemia (K-562), promyelocytic leukemia (HL-60), fibrosarcoma (HT-1080), breast cancer (MDA-MB-231, SK-BR-3, MCF 7), lung cancer (A 549), rectal adenocarcinoma (SW 837), osteosarcoma ([…]), lingual squamous cell carcinoma (SSC-25), uterocervical cancer (HeLa), cervical epidermoid cancer (CaSki), prostatic cancer (PC-3) and malignant melanoma (A-375) cells. Each of the cancer cell lines was incubated in a plate of 10 cm diameter until being confluent, the medium was exchanged with serum-free medium or Con A-containing serum-free medium and, after 48 hours, the culture supernatant and the cells were recovered. The cells were ultrasonically disrupted in 0.5 mL of dilution buffer and centrifuged. The resulting supernatant was subjected to EIA as a cell extract fraction. The culture supernatant was subjected to EIA as it was.

[2] = test system: SW 837 (rectal adenocarcinoma); experiment: as above; assay type: cell-based, Human; conditions: SW 837, Con A-containing serum-free medium 48 hours
Procedure: as §1

[3] = test system: MDA-MB-231 (breast cancer); experiment: as above; assay type: cell-based, Human; conditions: MDA-MB-231, Con A-containing serum-free medium 48 hours
Procedure: as §1

[4] = test system: CaSki (cervical epidermoid cancer); experiment: as above; assay type: cell-based, Human; conditions: Con A-containing serum-free medium 48 hours
Procedure: as §1

MG-63 (osteosarcoma) = experiment: as above; assay type: cell-based, Human; conditions: MG-63, Con A-containing serum-free medium 48 hours
Procedure: as §1

[5] = test system: SSC-25 (lingual squamous cell carcinoma); experiment: as above; assay type: cell-based, Human; conditions: SSC-25, Con A-containing serum-free medium 48 hours
Procedure: as §1

A450 [1]: 0.028
Substance: MMP-8: matrix metalloproteinase subjected to MT1-MMP sandwich EIA for cross reactivity

A450 [1]: 0.026
Substance: MMP-7: matrix metalloproteinase subjected to MT1-MMP sandwich EIA for cross reactivity

A450 [1]: 0.027
Substance: MMP-3: matrix metalloproteinase subjected to MT1-MMP sandwich EIA for cross reactivity

Substance: concanavalin A [Con A]
MT1-MMP in Culture Supernatant, +Con A (HT-1080 (fibrosarcoma); −Con A 10.1): 80.3
MT1-MMP in Cell Extract Fraction, +Con A (HT-1080 (fibrosarcoma); −Con A 45.9): 42.6
MT1-MMP in Culture Supernatant, +Con A ([2]; −Con A 1.8): 14.2
MT1-MMP in Cell Extract Fraction, +Con A ([2]; −Con A 21.5): 30.7
MT1-MMP in Culture Supernatant, +Con A ([3]; −Con A 7.6): 48.8
MT1-MMP in Cell Extract Fraction, +Con A ([3]; −Con A 42.8): 85.0
MT1-MMP in Culture Supernatant, +Con A ([4]; −Con A 1.7): 25.1
MT1-MMP in Cell Extract Fraction, +Con A ([4]; −Con A 9.0): 9.5
MT1-MMP in Cell Extract Fraction, +Con A (MG-63 (osteosarcoma); −Con A 0.7): 0.0
MT1-MMP in Culture Supernatant, +Con A (MG-63 (osteosarcoma); −Con A 1.6): 20.3
MT1-MMP in Culture Supernatant, +Con A ([5]; −Con A 2.8): 43.1
MT1-MMP in Cell Extract Fraction, +Con A ([5]; −Con A 5.9): 19.1
